Data as given in patent publication US20180153837A1, “METHODS OF IMPROVING PHYSIOLOGICAL RESPONSES RELATED TO POST-TRAUMATIC STRESS DISORDER THROUGH DIETARY SUPPLEMENTATION” (Natural Alternatives International, Inc., priority 2015, published 2018).
Read-outs that look alike come from different tables or passages of the source.

What was measured:
[1] = tested on: animal model of post-traumatic stress disorder (PTSD)
Experimental: (§1) Adult male Sprague-Dawley rats weighing 200-250 gm (n=122) were habituated to housing conditions for at least seven days. All animals were housed four per cage in a vivarium with stable temperature and a reversed 12-h light/dark cycle, with unlimited access to food and water. β-alanine was provided with glucomannan in a powder form in an 80:20 blend. Rats were provided with 100 mg of the powder per kg of body mass (a total of 30 mg of powder was dissolved in 25 ml of water). PL treated rats were provided with the vehicle (glucommanan) at the same relative dose. Animals were handled once daily. All testing was performed during the dark phase in dim red light conditions. This study was performed according to the principles and guidelines of the National Institute of Health Guide for the Care and Use of Laboratory Animals. All treatment and testing procedures were approved by the Animal Care Committee of the Ben-Gurion University of the Negev, Israel.
(§2) Following the 7-day acclimation period in which all rats received a normal powder diet, they were randomized into the four groups. Following 30-days of either normal diet or β-alanine supplemented diet the rats were exposed to either the PSS or sham protocol. All behavioral tests were conducted 7 days following the PSS or sham protocol, and the rats were then sacrificed 24 hours later and brains were removed. Diets were maintained until the end of the study.
(§3) Following the 30-day supplementation regimen, animals were exposed to the PSS protocol. The PSS protocol consisted of placing the experimental animal on well-soiled cat litter (in use by the cat for 2 days, sifted for stools) for 10 minutes in a closed environment. Control animals were exposed to fresh, unused litter for the same amount of time. The situational reminder consisted of placing animals on fresh, unused cat litter for 15 minutes.

[2] = tested on: brain carnosine; settings: mice, β-alanine supplemented diet; cited from earlier work
[3] = tested on: BDNF; settings: mice, β-alanine supplemented diet; cited from earlier work
[4] = tested on: corticosterone
Experimental: as §1
Following the 7-day acclimation period in which all rats received a normal powder diet, they were randomized into the four groups. Following 30-days of either normal diet or β-alanine supplemented diet the rats were exposed to either the PSS or sham protocol. […]
Plates were read at 450 nm. […] All samples were measured in duplicate.

[5] = tested on: brain carnosine; settings: for Brain Carnosine Concentrations, Amygdala / Brain Carnosine Concentrations, Cortex / Brain Carnosine Concentrations, Hippocampus / Brain Carnosine Concentrations, Hypothalamus / Brain Carnosine Concentrations, Olfactory bulb / Brain Carnosine Concentrations, Thalamus: 30 days BA, mean ± SD
Experimental: as §1
Rats were randomly assigned to one of four treatment groups (n=30 or 31 per group):
as §2, §3
Carnosine concentrations in brain homogenates were determined by LC-MS-MS analysis.
Brains were partially thawed on ice and six brain regions were sampled: cerebral cortex, hypothalamus, hippocampus, amygdala, olfactory bulb, and thalamus. Each sample was weighed and transferred into individual vials for further homogenization.
Brain samples were homogenized in saline (0.9% NaCl; 100 mg/l ml) supplemented with 1 mM EDTA, using Polytron Homogenizer. Homogenates were stored at −20°±5° C. prior to LC/MS/MS analysis. L-Carnosine purchased from Sigma was used to prepare standards for the calibration curve (in ppb). Samples were diluted ×5 prior to analysis. The concentration read from the standard curve was multiplied by the dilution factor and converted to ppm units.

[6] = β-alanine taken as a free amino acid; cited from earlier work
[7] = tested on: BDNF
Experimental: as §1, §2

[8] = tested on: mice; settings: β-alanine supplemented diet; cited from earlier work
[9] = PSS+PL compared with PSS+BA (and UNEX groups), 7 days after PSS
[10] = PSS+BA: rats exposed to PSS, Day 8 post-PSS
[11] = UNEX+BA: rats not exposed to PSS

Structure (SMILES): NCCC(=O)O [BA, β-alanine]
- startle amplitude ([1]; PSS+BA compared with PSS+PL, p=0.085): tended to have a lower startle amplitude
- EPM scores ([1]; PSS+BA compared with UNEX+BA): comparable scores to UNEX+BA
- startle amplitude ([1]; PSS+BA compared with unexposed animals (normal diet p<0.001; BA p=0.0001)): significantly greater
- immobility upon cue ([1]; PSS+BA compared with unexposed animals (normal diet p=0.01; BA p=0.003)): significantly greater immobility upon cue
- freezing, difference ([1]; PSS+BA less than PSS+PL, p=0.148): approximately 6%
- freezing, significance of difference ([1]; PSS+BA versus PSS+PL, p=0.148): not statistically different
- freezing upon cue-exposure (percentage of total time) ([1]; PSS+BA, Day 8): 34.8%
- number of open arm entries in the EPM [1, 9]: significantly less
- time in the open arms of the EPM [1, 9]: significantly less time in the open arms
- Anxiety index ([1]; PSS+PL compared with PSS+BA, p<0.05): higher
- startle habituation score ([1]; animals exposed to PSS regardless of diet versus unexposed groups, p<0.001): significantly lower habituation score
- lower startle response ([1]; exposed + β-alanine versus exposed not supplemented, p=0.085): 19%
- lower freezing response ([1]; exposed + β-alanine versus exposed not supplemented, p=0.148): 15%
- brain carnosine concentrations in the cerebral cortex and hypothalamus [2]: increase brain carnosine concentrations
- concentration of BDNF in the hippocampus [3]: increase the concentration of BDNF
- corticosterone concentrations ([4]; PSS+BA compared with unexposed animals, p<0.001): significantly higher corticosterone concentrations
- corticosterone concentrations ([4]; exposed rats normal diet versus exposed rats BA, p=0.837): No significant differences
- Brain Carnosine Concentrations, Amygdala [5, 10]: 3.52 ± 3.84 a, c mg · L^−1
- Brain Carnosine Concentrations, Cortex [5, 10]: 6.55 ± 4.90 a, c mg · L^−1
- Brain Carnosine Concentrations, Hippocampus [5, 10]: 5.58 ± 4.39 a, c mg · L^−1
- Brain Carnosine Concentrations, Hypothalamus [5, 10]: 4.54 ± 4.04 a, c mg · L^−1
- Brain Carnosine Concentrations, Olfactory bulb [5, 10]: 13,109 ± 9,773 mg · L^−1
- Brain Carnosine Concentrations, Thalamus [5, 10]: 5.97 ± 4.48 a, c mg · L^−1
- Brain Carnosine Concentrations, Amygdala [5, 11]: 2.34 ± 3.04 mg/L
- Brain Carnosine Concentrations, Cortex [5, 11]: 3.78 ± 4.47 a mg · L^−1
- Brain Carnosine Concentrations, Hippocampus [5, 11]: 3.75 ± 3.98 a mg · L^−1
- Brain Carnosine Concentrations, Hypothalamus [5, 11]: 2.60 ± 2.85 mg/L
- Brain Carnosine Concentrations, Olfactory bulb [5, 11]: 8,309 ± 6,887 mg · L^−1
- Brain Carnosine Concentrations, Thalamus [5, 11]: 3.99 ± 5.10 a mg · L^−1
- Brain carnosine concentrations in the hippocampus and other brain sections ([5]; animals supplemented with BA compared to PL): significantly greater
- influence on carnosine concentrations in the olfactory bulb ([5]; supplemented versus normal diet): did not appear to have any influence
- duration of flushing/tingling of the skin [6]: less than 60 minutes
- BDNF expression, CA1 subregion ([7]; PSS+BA compared with PSS+PL, p<0.001): significantly greater than exposed rats fed a normal diet
- BDNF expression, DG subregion ([7]; PSS+BA compared with PSS+PL, p=0.011): greater
- BDNF expression, CA1 subregion ([7]; PSS+BA compared with unexposed animals): significantly lower than unexposed animals
- BDNF expression, DG subregion ([7]; PSS+BA compared with unexposed animals (p=0.765, p=0.818)): not statistically different
- BDNF expression in unexposed rats ([7]; UNEX+BA versus UNEX+PL): did not appear to increase BDNF expression
- activity in the open arms of an elevated plus-maze test [8]: significantly greater activity
